This passage reports Ki, MIC and Activity results from ChEMBL document CHEMBL1140843, “Discovery of new inhibitors of D-alanine:D-alanine ligase by structure-based virtual screening” (J Med Chem, 2008).

A short description of experiment [1]: Inhibition of Escherichia coli DdlB.
For experiment [2], the system named is Escherichia coli. Description: Antibacterial activity against Escherichia coli 1411 after 16 hrs broth microdilution method. The class given is functional.
Experiment [3] has as its system Escherichia coli. The experiment in a line: Inhibition of Escherichia coli DdlB at 250 uM preincubated for 15 mins before substrate addition measured after 20 mins.
The subject of experiment [4] is Escherichia coli. Description: Antibacterial activity against Escherichia coli SM1411 after 16 hrs broth microdilution method. It counts as functional.
The next experiment concerns Staphylococcus aureus. The experiment in a line: Antibacterial activity against Staphylococcus aureus 8325-4 after 16 hrs broth microdilution method. It counts as functional. The note with it: 8325-4, 16 h.

Values after ≈ are worked out from the molar mass of the structure shown. Active and inactive are the calls of the source. The calls are words filed in the database; no cut-off is given here.

In turn, `COc1ccc2c(c1)c1c(C)c3cnccc3c(C)c1n2CCCN` registered a Ki in experiment [1] of 11 µM. Further, the minimal inhibitory concentration (MIC) is 32 µg/mL (≈ 96 µM) against Escherichia coli [2], 8 µg/mL (≈ 24 µM) against Escherichia coli [4] and 32 µg/mL (≈ 96 µM) in the experiment on Staphylococcus aureus. Besides, in the experiment on Escherichia coli [3], the outcome was Active. The compound `N[C@@H](C[C@H]1C[C@]1(C(=O)O)c1ccccc1)C(=O)O` came in with a Ki in experiment [1] of 12.5 µM. The compound `C/C(O)=C(\C#N)C(=O)Nc1cc(Br)ccc1Br` had a Ki in experiment [1] of 185 µM. Same read-out and setting: to `C[C@@H](N)C(=O)NP(=O)(O)O` belongs 50 µM. `O=C(/N=N/C(=O)Nc1ccc(Cl)cc1)NCc1cccnc1` had a Ki in experiment [1] of 33 µM.

In experiment [1], `COc1ccc2nc3cc(Cl)ccc3c(Nc3ccc(O)c(CN4CCN(C)CC4)c3)c2c1` returned a Ki of 218 µM. In addition, the result with Escherichia coli [3] was Active. In addition, the minimum inhibitory concentration (MIC) in the experiment with Escherichia coli [4] came to 64 µg/mL (≈ 138 µM); with Staphylococcus aureus it was 32 µg/mL (≈ 69.1 µM). `CS[C@@H](CP(=O)(O)[C@@H](C)N)C(=O)O` gave a Ki in experiment [1] of 4 µM. This lies in the single-digit micromolar range. Regarding `CC(C)(CCl)C(=O)Nc1ccc(C(F)(F)F)cc1`, in experiment [1], affinity was put at a Ki of 4 µM. `N[C@@H]1CONC1=O` [CYCLOSERINE] yielded an inhibition constant Ki in experiment [1] of 22 µM.
